In patent publication US8067589B2, “Heterocyclic compounds useful in treating diseases and conditions” (Pfizer Inc, priority 2007, dated 2011) one finds IC50 data, which are given here for 15 molecules.

The structures appear in SMILES notation.

The target of this experiment is human recombinant H-PGDS (Homo sapiens, UniProt O60760). Description: Fluoresecence Intensity h-PGDSTBA Enzyme Assay. The settings on record: IC50, 5.0 μM PGH2, 2.5 mM L-Glutathione, 10 min preincubation, 4-parameter fit, highest inhibitor concentration typically 1 μM.
human recombinant H-PGDS, sequence (O60760 whole entry): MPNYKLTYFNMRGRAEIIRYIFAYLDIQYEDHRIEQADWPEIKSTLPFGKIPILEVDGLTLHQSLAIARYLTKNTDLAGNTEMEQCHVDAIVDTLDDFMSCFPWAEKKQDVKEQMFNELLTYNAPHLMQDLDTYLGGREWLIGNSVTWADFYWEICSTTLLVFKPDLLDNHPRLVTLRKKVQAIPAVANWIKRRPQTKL
For orientation: IC50 means the midpoint of a concentration-inhibition curve. For `CC(=O)N1CC[C@@H](NC(=O)c2cnc(-c3cccc(F)c3)nc2)C1` [Example 88, N-[(3R)-1-Acetylpyrrolidin-3-yl]-2-(3-fluorophenyl)pyrimidine-5-carboxamide], the IC50 was found to be 1.58 nM. Consider `O=C(NC1CCN(c2ncc3c(n2)CCC3)C1)c1cnc(-c2cccc(F)c2)nc1` (stereo not drawn) [Example 89, N-[1-(6,7-Dihydro-5H-cyclopenta[d]pyrimidin-2-yl)pyrrolidin-3-yl]-2-(3-fluorophenyl)pyrimidine-5-carboxamide], for which the IC50 worked out at 0.147 nM. On to `O=C(NC1CCN(C2Cc3ccccc3C2)C1=O)c1cnc(-c2cccc(F)c2)nc1` (stereo not drawn) [Example 90, N-[1-(2,3-Dihydro-1H-inden-2-yl)-2-oxopyrrolidin-3-yl]-2-(3-fluorophenyl)pyrimidine-5-carboxamide], for which the 50% inhibitory concentration (IC50) was determined as 0.808 nM.

As to `CCCCOCCCN1CCC(NC(=O)c2cnc(-c3cccc(F)c3)nc2)C1=O` (stereo not drawn) [Example 91, N-[1-(3-Butoxypropyl)-2-oxopyrrolidin-3-yl]-2-(3-fluorophenyl)pyrimidine-5-carboxamide], the IC50 worked out at 2.8 nM. As for `CC(C)(C)OC(=O)N1C[C@H](NC(=O)c2cnc(-c3cccc(F)c3)nc2)[C@@H](F)C1` [Example 92, tert-Butyl (3S,4S)-3-fluoro-4-({[2-(3-fluorophenyl)pyrimidin-5-yl]carbonyl}amino)pyrrolidine-1-carboxylate], the IC50 was found to be 2.87 nM. `Cc1cc(C)c(C#N)c(N2CC(NC(=O)c3cnc(-c4cccc(F)c4)nc3)C2)n1` [Example 103, N-[1-(3-Cyano-4,6-dimethylpyridin-2-yl)azetidin-3-yl]-2-(3-fluorophenyl)pyrimidine-5-carboxamide]: the IC50 came to 0.815 nM. For the molecule `O=C(NC1CN(c2nnnn2-c2ccccc2)C1)c1cnc(-c2cccc(F)c2)nc1` [Example 104, 2-(3-Fluorophenyl)-N-[1-(1-phenyl-1H-tetrazol-5-yl)azetidin-3-yl]pyrimidine-5-carboxamide], the concentration for half-maximal inhibition (IC50) came out at 0.706 nM. For `O=C(NC1CN(c2cnc3ccccc3n2)C1)c1cnc(-c2cccc(F)c2)nc1` [Example 105, 2-(3-Fluorophenyl)-N-(1-quinoxalin-2-ylazetidin-3-yl)pyrimidine-5-carboxamide] the value was 0.364 nM; for `CC(C)(C)C(=O)N1CC(NC(=O)c2cnc(-c3cccc(F)c3)nc2)C1` [Example 106, N-[1-(2,2-Dimethylpropanoyl)azetidin-3-yl]-2-(3-fluorophenyl)pyrimidine-5-carboxamide], 2.98 nM; for `O=C(NC1CCN(CC(F)(F)F)CC1)c1cnc(-c2ccccc2CO)nc1` [Example 113, 2-[2-(Hydroxymethyl)phenyl]-N-[1-(2,2,2-trifluoroethyl)piperidin-4-yl]pyrimidine-5-carboxamide], 1010 nM. Consider `CC(=O)c1ccccc1-c1ncc(C(=O)NC2CCN(CC(F)(F)F)CC2)cn1` [Example 119, 2-(2-Acetylphenyl)-N-[1-(2,2,2-trifluoroethyl)piperidin-4-yl]pyrimidine-5-carboxamide], for which the 50% inhibitory concentration (IC50) amounted to 9460 nM. `COC(=O)c1cccc(-c2ncc(C(=O)NC3CCN(CC(F)(F)F)CC3)cn2)c1` [Example 125, Methyl 3-[5-({[1-(2,2,2-trifluoroethyl)piperidin-4-yl]amino}carbonyl)pyrimidin-2-yl]benzoate]: the IC50 was determined as 270 nM. As for `CC(=O)c1cccc(-c2ncc(C(=O)NC3CCN(C(=O)C(C)(C)C)CC3)cn2)c1` [Example 142, 2-(3-Acetylphenyl)-N-[1-(2,2-dimethylpropanoyl)piperidin-4-yl]pyrimidine-5-carboxamide], the IC50 is 64 nM. Turning to `O=C(NC1CCN(Cc2ccccn2)CC1)c1cnc(-c2cccc(CO)c2)nc1` [Example 159, 2-[3-(Hydroxymethyl)phenyl]-N-[1-(pyridin-2-ylmethyl)piperidin-4-yl]pyrimidine-5-carboxamide], the IC50 was 2040 nM. Regarding `CS(=O)(=O)Nc1cccc(-c2ncc(C(=O)NC3CCN(Cc4ccccn4)CC3)cn2)c1` [Example 176, 2-{3-[(Methylsulfonyl)amino]phenyl}-N-[1-(pyridin-2-ylmethyl)piperidin-4-yl]pyrimidine-5-carboxamide], the IC50 came to 2700 nM.
